Active and inactive are the calls of the source. The rule behind the calls is not given here.
Legend:
U-87MG ATCC [1] = experiment: Antiproliferative activity against human U-87 MG cells assessed as inhibition of cell proliferation and measured upto 72 hrs by CCK8 assay; format: functional, cell-based; conditions: TDE = time-dependent effect
U-251 [2] = experiment: Antiproliferative activity against human U-251 cells assessed as reduction in colony number at 0.25 to 1 uM for 2 to 3 weeks by crystal violet staining based plate clone formation assay; format: functional, cell-based; conditions: dose 0.25-1 µM, time 2-3 weeks, DDE = dose-dependent effect
U-87MG ATCC [3] = experiment: Antiproliferative activity against human U-87 MG cells assessed as reduction in colony number at 0.125 to 0.5 uM for 2 to 3 weeks by crystal violet staining based plate clone formation assay; format: functional, cell-based; conditions: dose 0.125-0.5 µM, time 2-3 weeks, DDE = dose-dependent effect
U-251 [4] = experiment: Induction of apoptosis in human U-251 cells assessed as morphological changes at 0.375 to 6 uM measured after 72 hrs by Giemsa staining based microscopic analysis; format: functional, cell-based; conditions: dose 0.375-6 µM
U-87MG ATCC [5] = experiment: Induction of apoptosis in human U-87 MG cells assessed as enlargement of intracellular space at 0.075 to 1.20 uM measured after 72 hrs by Giemsa staining based microscopic analysis; format: functional, cell-based; conditions: dose 0.075-1.2 µM
U-87MG ATCC [6] = experiment: Induction of apoptosis in human U-87 MG cells assessed as decrease in cell size at 0.075 to 1.20 uM measured after 72 hrs by Giemsa staining based microscopic analysis; format: functional; conditions: dose 0.075-1.2 µM
U-87MG ATCC [7] = experiment: Induction of apoptosis in human U-87 MG cells assessed as formation of spindle shaped cells at 0.075 to 1.20 uM measured after 72 hrs by Giemsa staining based microscopic analysis; format: functional, cell-based; conditions: dose 0.075-1.2 µM
[8] = Induction of apoptosis in human U-87 MG cells assessed as early apoptotic cells at 1.20 uM incubated for 72 hrs by Annexin V-FITC/PI staining based flow cytometry method (reference value: 2.53 %); format: functional, U-87MG ATCC; conditions: dose 1.2 µM
[9] = Induction of apoptosis in human U-87 MG cells assessed as late apoptotic cells at 1.20 uM incubated for 72 hrs by Annexin V-FITC/PI staining based flow cytometry method (reference value: 0.42 %); format: functional, U-87MG ATCC; conditions: dose 1.2 µM
[10] = Induction of apoptosis in human U-87 MG cells assessed as necrotic cells at 1.20 uM incubated for 72 hrs by Annexin V-FITC/PI staining based flow cytometry method (reference value: 0.21 %); format: functional, U-87MG ATCC; conditions: dose 1.2 µM
[11] = Induction of apoptosis in human U-87 MG cells assessed as early apoptotic cells at 0.075 uM incubated for 72 hrs by Annexin V-FITC/PI staining based flow cytometry method (reference value: 2.53 %); format: functional, U-87MG ATCC
[12] = Induction of apoptosis in human U-87 MG cells assessed as late apoptotic cells at 0.075 uM incubated for 72 hrs by Annexin V-FITC/PI staining based flow cytometry method (reference value: 0.42 %); format: functional, U-87MG ATCC
[13] = Induction of apoptosis in human U-87 MG cells assessed as late apoptotic cells at 0.30 uM incubated for 72 hrs by Annexin V-FITC/PI staining based flow cytometry method (reference value: 0.42 %); format: functional, U-87MG ATCC; conditions: dose 0.3 µM
U-251 [14] = experiment: Induction of apoptosis in human U-251 cells assessed as viable cells at 6 uM incubated for 72 hrs by Annexin V-FITC/PI staining based flow cytometry method (reference value: 96.22 %); format: functional; conditions: read-out: Activity
U-251 [15] = experiment: Induction of apoptosis in human U-251 cells assessed as early apoptotic cells at 6 uM incubated for 72 hrs by Annexin V-FITC/PI staining based flow cytometry method (Rvb =1.96 %); format: functional
U-251 [16] = experiment: Induction of apoptosis in human U-251 cells assessed as viable cells at 0.375 uM incubated for 72 hrs by Annexin V-FITC/PI staining based flow cytometry method (reference value: 96.22 %); format: functional; conditions: read-out: Activity
U-251 [17] = experiment: Induction of apoptosis in human U-251 cells assessed as early apoptotic cells at 0.375 uM incubated for 72 hrs by Annexin V-FITC/PI staining based flow cytometry method (Rvb =1.96 %); format: functional
U-251 [18] = experiment: Induction of apoptosis in human U-251 cells assessed as late apoptotic cells at 0.375 uM incubated for 72 hrs by Annexin V-FITC/PI staining based flow cytometry method (Rvb =1.31 %); format: functional
U-251 [19] = experiment: Induction of apoptosis in human U-251 cells assessed as necrotic cells at 1.50 uM incubated for 72 hrs by Annexin V-FITC/PI staining based flow cytometry method (Rvb =0.51 %); format: functional; conditions: dose 1.5 µM
U-87MG ATCC [20] = experiment: Induction of cell cycle arrest in human U-87 MG cells assessed as accumulation at G0/G1 phase at 0.075 to 1.2 uM and measured after 72 hrs by flow cytometry; format: functional, cell-based; conditions: dose 0.075-1.2 µM, DDE = dose-dependent effect
U-251 [21] = experiment: Induction of cell cycle arrest in human U-251 cells assessed as decrease in accumulation at S phase at 0.75 to 3 uM measured after 72 hrs by flow cytometry; format: functional, cell-based; conditions: dose 0.75-3 µM, DDE = dose-dependent effect
U-87MG ATCC [22] = experiment: Induction of cell cycle arrest in human U-87 MG cells assessed as decrease in accumulation at G2/M phase at 0.075 to 1.20 uM measured after 72 hrs by flow cytometry; format: functional, cell-based; conditions: dose 0.075-1.2 µM, DDE = dose-dependent effect
U-87MG ATCC [23] = experiment: Antimigratory activity in human U-87 MG cells assessed as inhibition of cell migration by measuring wound closure at 0.125 to 0.50 uM and measured after 24 hrs by transwell migration assay; format: functional, cell-based; conditions: dose 0.125-0.5 µM, DDE = dose-dependent effect
[24] = Half life in Sprague-Dawley rat brain at 100 mg/kg, ip and measured upto 240 mins by LC-MS analysis; format: ADME, organism-based
[25] = AUC (0 to t) in Sprague-Dawley rat plasma at 100 mg/kg, ip and measured upto 240 mins by LC-MS analysis; format: ADME, organism-based; parameters: dose 100 mg/kg, time < 240 min, route ip
[26] = AUC (0 to infinity) in Sprague-Dawley rat plasma at 100 mg/kg, ip and measured upto 240 mins by LC-MS analysis; format: ADME, organism-based; parameters: time < 240 min, dose 100 mg/kg, route ip
[27] = Acute toxicity in Kunming mouse assessed as pathological changes in spleen at 600 mg/kg, ip measured after 24 hrs by H and E staining analysis; format: organism-based; conditions: in vivo
U-87MG ATCC [28] = experiment: Antitumor activity against human U-87 MG cells xenografted in BALB/c mouse assessed as decrease in tumor weight at 10 mg/kg,ip bid for 1 month; format: functional, organism-based; conditions: time 1.0 months
[29] = Antitumor activity against human U-87 MG cells xenografted in BALB/c mouse assessed as tumor growth inhibition at 10 mg/kg,ip bid for 1 month; format: functional, U-87MG ATCC; conditions: 730 h, time 1 months, read-out: TGI
U-87MG ATCC [30] = experiment: Antitumor activity against human U-87 MG cells xenografted in BALB/c mouse assessed assessed as inhibition of tumor cell proliferation at 10 mg/kg,ip bid for 1 month by Ki67 staining based immunohistochemical analysis; format: functional, organism-based; conditions: time 1.0 months
U-87MG ATCC [31] = experiment: Downregulation of cyclin D1 gene expression in human U-87 MG cells at 0.075 to 1.2 uM measured after 72 hrs by western blot analysis; format: functional, cell-based; conditions: dose 0.075-1.2 µM
U-87MG ATCC [32] = experiment: Downregulation of CDK4 gene expression in human U-87 MG cells at 0.075 to 1.2 uM measured after 72 hrs by western blot analysis; format: functional, cell-based; conditions: dose 0.075-1.2 µM
U-87MG ATCC [33] = experiment: Downregulation of pRb gene expression in human U-87 MG cells at 0.075 to 1.2 uM measured after 72 hrs by western blot analysis; format: functional, cell-based; conditions: dose 0.075-1.2 µM

In the case of COCCN1CCN(c2ccc(F)cc2C(=O)Nc2ccc(CNC(=O)OCc3cccnc3)cc2)CC1, the Activity (U-87MG ATCC [1]) is reported as “Tde”, the Activity (U-251 [2]) is reported as “Dde” and the Activity (U-87MG ATCC [3]) is reported as “Dde”. The Activity (U-251 [4]) was “Active”, the Activity (U-87MG ATCC [5]) was “Active” and the Activity (U-87MG ATCC [6]) was “Active”. The Activity (U-87MG ATCC [7]) was “Active”, the Activity [8] was 17.92% and the Activity [9] was 9.97%. The Activity [10] was 1.76%, the Activity [11] was 2.76% and the Activity [12] was 0.41%. It also gave an Activity [13] of 0.95%, a viability at 6 µM (U-251 [14]) of 86.8% and an Activity (U-251 [15]) of 4.81%. The viability at 0.375 µM (U-251 [16]) was 95.9%, the Activity (U-251 [17]) was 1.9% and the Activity (U-251 [18]) was 1.61%. The Activity (U-251 [19]) was 0.94%, the Activity (U-87MG ATCC [20]) was “Dde” and the Activity (U-251 [21]) was “Dde”. The Activity (U-87MG ATCC [22]) was “Dde”, the Activity (U-87MG ATCC [23]) was “Dde” and the half-life [24] was 43.8 min. For the same molecule, the AUC(0-t) at 4 h [25] was 90400 ng·h/mL, the AUC(0-inf) [26] was 95500 ng·h/mL and the Activity [27] was “Non-Toxic”. For the same molecule, the Activity (U-87MG ATCC [28]) was “Active”, the inhibition in vivo at 10 mg/kg [29] was 70.5% and the Activity (U-87MG ATCC [30]) was “Active”. The Activity (U-87MG ATCC [31]) was “Active”, the Activity (U-87MG ATCC [32]) was “Active” and the Activity (U-87MG ATCC [33]) was “Active”.
